For data set [1], the system named is Candida albicans. The data set can be described thus: Antibiofilm activity against Candida albicans SC5314 assessed as inhibition of biofilm formation at 0.15 to 0.6 ug/mL incubated for 24 hrs by crystal violet staining based inverted microscopy analysis. Format: functional, organism-based. Particulars: dose 0.15-0.6 µg/ml.
The test system of data set [2] is Candida albicans. The data set can be described thus: Antifungal activity against Candida albicans SC5314FR assessed as fractional inhibitory concentration index incubated for 24 hrs in presence of fluconazole by microdilution method. Format: functional. Background: Dilution methods test growth across graded concentrations, often in twofold steps.
The subject of data set [3] is Candida albicans. In words: Antifungal activity against Candida albicans SC5314 assessed as fractional inhibitory concentration index incubated for 24 hrs in presence of fluconazole by microdilution method. Format: functional.
Data set [4] concerns Candida albicans. In words: Induction of cell membrane permeability in Candida albicans SC5314 at 0.15 to 0.6 ug/mL incubated for 16 hrs by […] iodide staining based fluorescence microscopy. It counts as functional, organism-based. Particulars: dose 0.15-0.6 µg/ml.
For data set [5], the system named is Candida albicans. In words: Antifungal activity against Candida albicans SC5314 incubated for 24 hrs by microdilution method. Format: functional.
Data set [6] concerns Candida albicans. In words: Antifungal activity against Candida albicans SC5314 incubated for 24 hrs in presence of fluconazole by microdilution method. It counts as functional.
In data set [7] the test system is Candida albicans. The data set can be described thus: Antifungal activity against Candida albicans SC5314FR incubated for 24 hrs by microdilution method. Format: functional.
Data set [8] relates to Candida albicans. The data set can be described thus: Antifungal activity against Candida albicans SC5314FR incubated for 24 hrs in presence of fluconazole by microdilution method. It counts as functional, SC5314.
Data set [9] deals with T1, Lanosterol 14-alpha demethylase (Candida albicans (strain SC5314 / ATCC MYA-2876) (Yeast), UniProt P10613). The data set can be described thus: Inhibition of CYP51 in Candida albicans SC5314 assessed as reduction in ergosterol content at 0.15 to 0.6 ug/mL incubated for 16 hrs by spectrophotometry analysis. As to conditions: at 0.15 to 0.6 µg/mL, dose 0.15-0.6 µg/ml.
T1 sequence (P10613 whole entry): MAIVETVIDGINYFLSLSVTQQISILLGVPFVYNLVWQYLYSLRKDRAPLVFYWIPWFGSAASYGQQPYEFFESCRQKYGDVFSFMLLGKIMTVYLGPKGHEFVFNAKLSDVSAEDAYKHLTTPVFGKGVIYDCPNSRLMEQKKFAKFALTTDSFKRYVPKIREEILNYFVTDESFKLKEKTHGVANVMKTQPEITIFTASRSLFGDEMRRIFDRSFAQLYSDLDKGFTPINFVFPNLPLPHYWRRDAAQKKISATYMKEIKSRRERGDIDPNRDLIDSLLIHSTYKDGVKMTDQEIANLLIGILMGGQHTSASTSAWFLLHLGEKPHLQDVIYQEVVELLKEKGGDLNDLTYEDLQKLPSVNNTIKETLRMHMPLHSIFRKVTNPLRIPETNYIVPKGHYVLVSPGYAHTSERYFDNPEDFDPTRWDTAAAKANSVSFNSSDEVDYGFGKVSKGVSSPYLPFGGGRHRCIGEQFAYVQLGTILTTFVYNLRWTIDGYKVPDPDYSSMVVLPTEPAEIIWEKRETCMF
Data set [10] deals with Candida albicans. In words: Induction of morphological changes in Candida albicans SC5314 assessed as appearance of incomplete cell wall structure incubated for 16 hrs by TEM analysis. Format: functional, organism-based. Particulars: dose 0.15-0.6 µg/ml.
For data set [11], the system named is Candida albicans. In words: Induction of morphological changes in Candida albicans SC5314 assessed as appearance of obvious defects incubated for 16 hrs by TEM analysis. It counts as functional, organism-based. Particulars: dose 0.15-0.6 µg/ml.
In data set [12] the test system is Candida albicans. The data set can be described thus: Induction of morphological changes in Candida albicans SC5314 assessed as appearance of blurred boundary between cell wall and cell membrane incubated for 16 hrs by TEM analysis. It counts as functional, organism-based. As to conditions: dose 0.15-0.6 µg/ml.
The subject of data set [13] is Candida albicans. In words: Induction of morphological changes in Candida albicans SC5314 assessed as appearance of unclear cell membrane outline incubated for 16 hrs by TEM analysis. It counts as functional, organism-based. Particulars: dose 0.15-0.6 µg/ml.
Data set [14] relates to Candida albicans. The data set can be described thus: Induction of morphological changes in Candida albicans SC5314 assessed as chaotic dissolution of cytoplasm incubated for 16 hrs by TEM analysis. It counts as functional, organism-based. As to conditions: dose 0.15-0.6 µg/ml.
Data set [15] concerns Candida albicans. The data set can be described thus: Induction of morphological changes in Candida albicans SC5314 assessed as chaotic dissolution of vacuoles incubated for 16 hrs by TEM analysis. It counts as functional, organism-based. Particulars: dose 0.15-0.6 µg/ml.
The test system of data set [16] is Candida albicans. In words: Induction of morphological changes in Candida albicans SC5314 assessed as appearance of broken slag-like material incubated for 16 hrs by TEM analysis. It counts as functional, organism-based. As to conditions: dose 0.15-0.6 µg/ml.
Data set [17] relates to Candida albicans. In words: Induction of morphological changes in Candida albicans SC5314 assessed as leaking of intracellular substances incubated for 16 hrs by TEM analysis. Format: functional, organism-based. Particulars: dose 0.15-0.6 µg/ml.
In data set [18] the test system is Candida albicans. In words: Antibiofilm activity against Candida albicans SC5314 assessed as inhibition of biofilm formation at 0.3 ug/mL incubated for 24 hrs in presence of fluconazole by crystal violet staining based inverted microscopy analysis. It counts as functional, organism-based. Particulars: dose 0.3 µg/ml.
In data set [19] the test system is Candida albicans. In words: Induction of morphological changes in Candida albicans SC5314 assessed as appearance of loose texture incubated for 16 hrs by TEM analysis. It counts as functional, organism-based. As to conditions: dose 0.15-0.6 µg/ml.
For data set [20], the system named is Candida albicans. The data set can be described thus: Antibiofilm activity against Candida albicans SC5314 assessed as inhibition of biofilm formation at 0.3 ug/mL incubated for 24 hrs by crystal violet staining based inverted microscopy analysis. As to conditions: dose 0.3 µg/ml. It counts as functional, organism-based.
The subject of data set [21] is Candida albicans. In words: Induction of cell membrane permeability in Candida albicans SC5314 at 0.3 ug/mL incubated for 16 hrs by […] iodide staining based fluorescence microscopy. Format: functional, organism-based. As to conditions: dose 0.3 µg/ml.
The target of data set [22] is T1, Lanosterol 14-alpha demethylase. In words: Inhibition of CYP51 in Candida albicans SC5314 assessed as reduction in ergosterol content at 0.3 ug/mL incubated for 16 hrs by spectrophotometry analysis. Particulars: at 0.3 µg/mL.
For data set [23], the system named is Candida albicans. The data set can be described thus: Induction of morphological changes in Candida albicans SC5314 assessed as appearance of slightly blurred cytoplasm at 0.3 ug/ml incubated for 16 hrs by TEM analysis. It counts as functional, organism-based. As to conditions: dose 0.3 µg/ml.

In brackets after ≈: the same amount, converted by molar mass. Activity calls are given as the source filed them. No cut-off for these calls is given here. Bounds are passed on as bounds.

In the case of `CC(=O)N1CCN(c2ccc(OCCN(CC(O)(Cn3cncn3)c3ccc(F)cc3F)S(=O)(=O)c3ccc(Cl)cc3Cl)cc2)CC1` (stereo not given), the inhibition result in data set [1] and in data set [18] was “Active” in each case. Besides, the “fractional inhibitory concentration index (FICI)” value was 2 in data set [2] and 4.55 in [3]. Also, in data set [4], the result was Active. Moreover, the MIC50 was 0.02 µg/mL (≈ 0.0282 µM) in data set [5], 0.09 µg/mL in [6], more than 200 µg/mL in data set [7] and more than 200 µg/mL in [8]. In addition, the “inhibition (INH)” value in [9] is given as “Active”. The Activity result in data set [10], in data set [11], in [12], in data set [13], in data set [14] and in [15] was “Dose-Dependent Effect” in each case. Also, the Activity result in [16], in data set [17] and in data set [19] was “Dose-Dependent Effect” in each case.

For the compound `OC(Cn1cncn1)(Cn1cncn1)c1ccc(F)cc1F` [FLUCONAZOLE], the inhibition entry in [20] is “inactive”. In addition, the result in [21] was inactive. In addition, the MIC50 was 1.8 µg/mL (≈ 5.88 µM) in [5] and more than 200 µg/mL in [7]. In addition, the “inhibition (INH)” value in data set [22] is reported as “Not Active”. Further, the result in [23] was Active.

As a reminder, the MIC50 is an inhibitory concentration at the 50% level, which refers to growth in some studies and to a panel of isolates in others.

Source of the values: ChEMBL document CHEMBL5370634, “Synthesis and Antifungal Evaluation of New Azole Derivatives against Candida albicans” (ACS Med Chem Lett, 2023).
